What was measured:
cortical neurons = assay: protection of cortical neurons against camptothecin-induced death (calcein-AM cell count); type: cell-based, Sprague-Dawley rat; conditions: 10 μM camptothecin, 16 hours, mean ± standard deviation, n = 8 wells
Description: Cortical neurons were prepared from Sprague-Dawley rat embryos in the E18 pregnancy stage and cultivated in a 96-well plate at a density of 333 cells/mm^2 in Neurobasal medium (Invitrogen) supplemented with 2% B27 (Invitrogen) and 2% sodium pyruvate. With these culture conditions, it is possible to obtain very good cortical neuron purity in the cultures. After 6 days in culture, the death of cortical neurons was induced by adding 10 μM camptothecin dissolved in dimethyl sulfoxide (DMSO). At the same moment, the neurons were treated with different concentrations of the compound to be tested. The final DMSO concentration after treatment is 1%. After 16 hours of incubation with camptothecin, the survival of the neurons was evaluated by counting the surviving cells. To do this, the cells were incubated for 20 minutes in the presence of a vital dye, calcein-AM (Invitrogen) at 2 μg/ml. After labelling, each culture well was analyzed by means of an imaging station (Flash Cytometer, TROPHOS, FRANCE) provided with an image analysis software package TINA 4.5 (TROPHOS, France) allowing acquisition of digital images of the whole of the well (exposure time 40 ms). The cells, defined by pixel size criteria (min=10; max=40), were then counted by means of the Tina 4.5 software package (TROPHOS)

rat motoneurons = assay: in vitro trophic deprivation model of rat motoneurons (survival, calcein fluorescence); type: cell-based; conditions: 3 days of culture, no trophic factors
Description: It may be helpful to refer to Patent Application WO 0142784 of the applicant on the culture of spinal cord motoneurons.
The spinal cord of E14 rat embryos is dissected and the ventral portion is dissociated by trituration after trypsinization. The motoneurons are separated from the other spinal cells by a known method (Camu et al, 1993, Purification of spinal motoneurons from chicken and rat embryos by immunopanning. In <<Immunoselection Strategies for Neural cell culture>>), Neuroprotocols: A companion to Methods in Neurosciences 2, 191-199; Henderson et al., 1993, Neutrophins promote motor neuron survival and are present in embryonic limb bud. Nature 363 (6426):266-70). The cells are centrifuged on a density gradient. The motoneurons are enriched with the fraction of large (the less dense) cells. The cells of this fraction are incubated with an anti-p75 antibody, a surface antigen present on motoneurons. Secondary antibodies coupled with magnetic beads are added and the cell mixture is passed through a column in a magnet (Arce et al, 1999 Cardiotrophin-1 requires LIFRbeta to promote survival of mouse motoneurons purified by a novel technique. J. Neurosci Res 55(1): 119-26). Only motoneurons are retained: their purity is of the order of 90%.
The motoneurons are sown at low density in culture wells on a polyornithine-laminine substrate in a neurobasal medium (GIBCO) supplemented according to Raoul et al, 1999, Programmed cell death of embryonic motoneurons triggered through the Fas death receptor. J. Cell. Biol. 147(5):1049-62. Negative (absence of trophic factors) controls and positive controls (in the presence of 1 ng/ml BDNF (Brain-Derived Neurotrophic Factor), 1 ng/ml GDNF (Glial-Derived Neurotrophic Factor) and 10 ng/ml CNTF (Ciliary Neurotrophic Factor) as marketed by the US company PEPROTECH, Inc. and Sigma-Aldrich) are included in each series.
The compounds to be tested are added 60 minutes after sowing and the cultures are maintained at 37° C. under 5% CO2 for 3 days.
The motoneurons tend to die spontaneously in the absence of neurotrophic factors (Pettmann and Henderson, 1998, Neuronal cell death. Neuron 20(4):633-47). After 3 days, survival is evaluated by a fluorescence measurement after incubation of the cells in the presence of calcein which becomes fluorescent in living cells.
After 3 days of culture at 37° C. under 5% CO2 and in saturating humidity, up to 50% of the initially sown motoneurons survive in the medium supplemented with neurotrophic factors, whereas less than 15% of the motoneurons survive in a culture medium not added with neurotrophic factors.
The neuroprotective activity of the compounds to be tested was evaluated by their capacity of preventing the death of motoneurons when they are added to the Neurobasal medium (GIBCO) as compared with survival of the motoneurons in a medium added with neurotrophic factors.
The compounds of formula I according to the invention have shown neuroprotective activity at a concentration capable of providing a better survival rate of the motoneurons in the Neurobasal medium. This survival rate is expressed by the number of living cells after treatment with the compound to be tested as compared with survival induced by neurotrophic factors. This ratio therefore represents the survival percentage due to the tested compound as compared with the survival induced by neurotrophic factors. If the ratio is greater than 0, the effect of the compound is positive for the survival of motoneurons.

striatal neurons = assay: protection of striatal neurons against death induced by overexpression of a mutated form of huntingtin; type: cell-based; conditions: 7 days, living cells expressing GFP
Description: Primary cultures of striatal neurons are prepared and they are described in the literature (Primary striatal neuronal culture, Mao L. et al., Methods Mol. Med., 2003, 79:379-86). […] A second expression vector containing the DNA coding for the green fluorescent protein (GFP) is also electroporated and is used as a reporter gene. The DNA of the plasmid coding for the huntingtin was prepared by purifying with cesium chloride. The plasmid containing the GFP sequence was prepared on Qiagen columns. The integrity of the DNA sequences is checked by sequencing, transfection and Western blotting. The cells which survive electroporation are sown at a density of 4,000 cellules per well of 96-well plates. The culture is accomplished in neurobasal medium (GIBCO) supplemented with pyruvate and B-27 (Beckton Dickinson). The cells are maintained in culture for 7 days without changing the medium.
[…] Positive controls are made by adding BDNF at a final level of 5 ng/ml. The negative controls only receive 0.5% DMSO.
Cell death is evaluated after 7 days by counting the number of living cells expressing GFP.
The activity of the compounds to be tested was evaluated by their capacity of preventing death of striatal neurons cultivated in the neurobasal medium as compared with the survival of striatal neurons in a medium supplemented with BDNF (Brain-Derived Neurotrophic Factor).

SMILES: CC(C)CCC[C@@H](C)[C@H]1CC[C@H]2[C@@H]3CC(=O)C4=CC(=NO)CC[C@]4(C)[C@H]3CC[C@]12C [Example 3, 3-oxyimino-cholest-4-en-6-one]
- Cell viability (%) (cortical neurons; 0.1 μM compound): 63.3 ± 20.3%
- Cell viability (%) (cortical neurons; 0.3 μM compound): 99.1 ± 15.7%
- Cell viability (%) (cortical neurons; 1 μM compound): 112.2 ± 22.3%
- Ratio (survival of motoneurons with compound as compared with survival induced by neurotrophic factors) (rat motoneurons; concentration 3 μM): 0.60
- Ratio (survival of striatal neurons as compared with survival in medium supplemented with BDNF) (striatal neurons; concentration 1 μM): 0.3

SMILES: CC(C)=CCC[C@@H](C)[C@H]1CC[C@H]2[C@@H]3CC(=NO)C4=CC(=NO)CC[C@]4(C)[C@H]3CC[C@]12C [Example 10, cholest-4,24-dien-3,6-dioxime]
- Ratio (survival of motoneurons with compound as compared with survival induced by neurotrophic factors) (rat motoneurons; concentration 1 μM): 0.25

SMILES: CCC(C=C[C@@H](C)[C@H]1CC[C@H]2[C@@H]3CC(=O)C4=CC(=NO)CC[C@]4(C)[C@H]3CC[C@]12C)C(C)C (stereo partly shown) [Example 7, 24-ethyl-3-oxyimino-cholest-4,22-dien-6-one]
- Ratio (survival of motoneurons with compound as compared with survival induced by neurotrophic factors) (rat motoneurons; concentration 1 μM): 0.46

SMILES: CC(C)CCC[C@@H](C)[C@H]1CC[C@H]2[C@@H]3CC(=NO)C4=CC(=NO)CC[C@]4(C)[C@H]3CC[C@]12C [Example 9, cholest-4-en-3,6-dioxime]
- Ratio (survival of motoneurons with compound as compared with survival induced by neurotrophic factors) (rat motoneurons; concentration 0.6 μM): 0.25
- Ratio (survival of striatal neurons as compared with survival in medium supplemented with BDNF) (striatal neurons; concentration 0.3 μM): 0.5

SMILES: CCC(C=C[C@@H](C)[C@H]1CC[C@H]2[C@@H]3CC(=NO)C4=CC(=NO)CC[C@]4(C)[C@H]3CC[C@]12C)C(C)C (stereo partly shown) [Example 13, 24-ethyl-cholest-4,22-dien-3,6-dioxime]
- Ratio (survival of motoneurons with compound as compared with survival induced by neurotrophic factors) (rat motoneurons; concentration 1 μM): 0.34
